From patent US20240122938A1, “METHODS AND COMPOSITIONS FOR TREATING UVEAL MELANOMA” (INSERM (INSTITUT NATIONAL DE LA SANTÉ ET DE LA RECHERCHE …, priority 2019, published 2024)

Legend:
[1] = tested on: metastatic uveal melanoma cells; assay: Cell death by Annexin V/DAPI staining (flow cytometry); format: cell-based, human
Method: (§1) Cells were seeded at a density of 100 000 cells/well, in 6-well plate and treated with ABT-263 for indicated time. Cells were harvested using accutase enzyme, washed twice with ice-cold phosphate-buffered saline, resuspended in a buffer (Hepes 250 mM, NaCl 150 mM, KCl 5 mM, MgCl2 2 mM, CaCl2) 2 mM) with DAPI (1 μg/ml) and Annexin V-Alexa Fluor 647 conjugate (1/100) and incubated for 15 minutes at room temperature (25° C.) in the dark. Samples were immediately analyzed by a flow cytometer (MACS QUANT) using a laser at 405 nm excitation with a bandpass filter at 425 nm and 475 nm for DAPI detection and a laser at 635 nm excitation with a bandpass filter at 650 nm and 665 nm for Alexa Fluor 647 dye. Annexin and DAPI mono- or double positive cells were counted as dead cells.

[2] = tested on: primary uveal melanoma cell lines; assay: as above; format: cell-based, human
Method: as §1

[3] = tested on: 92.1 uveal melanoma cells xenografts; assay: Subcutaneous tumor xenograft; format: in vivo, athymic nude mice; conditions: 92.1 xenografts
Method: FIG. 3. ABT-263 reduces tumor growth in vivo. (A) Primary 92.1 uveal melanoma cells were subcutaneously engrafted into athymic nude mice. Once the tumours reached 100 mm3, mice were treated daily with ABT-263. The arrow indicates the start of the treatment. The growth tumor curves were determined by measuring the tumor volume using the equation V=(L Å˜W2)/2. […] (B) Sub-cutaneous tumor weight from control (Ct) and ABT-263-treated mice is shown. (C) Blood biochemical analysis of mice xenografted with OMM1 cells. Serum activity of alanine transaminase (ALT) and aspartate transaminase (AST) was measured in control and ABT-263 by spectrophotometric methods after the end of treatment. Data are presented as mean±SD (n=5 per group). Animal experiments were performed in accordance with French law and approved by a local institutional ethical committee. The animals were maintained in a temperature-controlled facility (22° C.) on a 12-h light/dark cycle and provided free access to food (standard laboratory chow diet from UAR, Epinay-S/Orge, France). Human Mel270 uvealmelanoma cells were subcutaneously inoculated into 8-week-old female, immune-deficient, athymic, nude FOXN1nu mice (Harlan Laboratory). […] The growth tumor curves were determined after measuring the tumor volume using the equation V=(L×W2)/2. […]

Mel270 cells = assay: Cell death / alive cells by Annexin V/DAPI FACS; format: cell-based, human
Method: FIG. 5: PERK dampens ABT-263 killing activity. (A) Q-PCR analysis of PERK level in Mel270 uveal melanoma cells treated with control (siCtl) or PERK (siPERK) siRNA for 48 hr. (B) Mel270 cells were treated with control (siCtl) or PERK (siPERK) siRNA for 48 hrs before being exposed to ABT-263 3 μM for 48 hr. FACS analyses of Annexin V/DAPI double staining in […] indicate alive (white) or dead (early, late apoptosis and necrosis in light grey) cells. (C) Mel270 cells were treated with ABT-263 5 μM or GSK2606414 5 μM alone or in combination for 48 h.
as §1

XBP1 splicing = XBP1 splicing (QRT-PCR); format: cell-based, human; conditions: both primary cells and metastatic OMM1 cells
Method: The mRNA was isolated using TRIzol (Invitrogen) according to a standard procedure. QRT-PCR was performed using SYBR® Green I (Eurogentec, Seraing, Belgium) and Multiscribe Reverse Transcriptase (Applied Biosystems) and subsequently monitored using the ABI Prism 7900 Sequence Detection System (Applied Biosystems, Foster City, CA). The detection of the SB34 gene was used to normalize the results. Spliced Xbp1 primers were previously reported27. Primer sequences for each cDNA were designed using either Primer Express Software (Applied Biosystems) or qPrimer depot (http://primerdepot.nci.nih.gov), and these sequences are available upon request.

92.1 cells = assay: Cell death / apoptosis; format: cell-based, human; conditions: 92.1 cells; similar level as Mel270
Method: as §1

[4] = single agent, phase I/II; cited from earlier work
[5] = tested on: ER stress molecules in metastatic human uveal melanoma cells; assay: Western blot of ER stress molecules; format: cell-based
Method: (§2) Western blotting was performed as previously described 25,26. Briefly, cell lysates (30 μg) were separated using SDS-PAGE, transferred onto a PVDF membrane and subsequently exposed to the appropriate antibodies, anti-BCL2 (ms-123-PO) was from neomarker, anti-caspase 3 (#610323) was from BD, anti-BAX (#8429) was from sigma, anti-PARP (#9542), anti-BCL-XL (#2762), anti-caspase 9 (#9502) and anti-PUMA (#4976) were from Cell Signaling Technology Inc, anti-MCL1 (#sc-819), anti-NOXA (#56169), and anti-HSP90 (#sc-13119) were from Santa Cruz biotechnology. The proteins were visualized using the ECL system (Amersham). The western blots shown are representative of at least 3 independent experiments.

[6] = tested on: ATF4 and CHOP in 92.1 cells; assay: Western blot of ER stress molecules; format: cell-based, human
Method: as §2

primary melanoma cells = assay: Cell proliferation assay; format: cell-based, human; conditions: data not shown
Method: (§3) Human uveal melanoma cell lines and short-term cultures derived from different patients with metastatic malignant melanoma cells were grown in DMEM supplemented with 7% FBS at 37° C. in a humidified atmosphere containing 5% CO2. Lipofectamine™ RNAiMAX and opti-MEM medium were purchased from Invitrogen (San Diego, CA, USA). ABT-263 was obtained from Euromedex and qVD from Clinisciences.

OMM1 cells = assay: Cell proliferation assay; format: cell-based, human; conditions: OMM1 metastatic melanoma cells
Method: as §3

[7] = tested on: OMM2,5 metastatic melanoma cells; assay: Cell proliferation assay; format: cell-based, human
Method: as §3

## CC1(C)CCC(c2ccc(Cl)cc2)=C(CN2CCN(c3ccc(C(=O)NS(=O)(=O)c4ccc(N[C@H](CCN5CCOCC5)CSc5ccccc5)c(S(=O)(=O)C(F)(F)F)c4)cc3)CC2)C1 [ABT-263, 4-[4-[[2-(4-chlorophenyl)-5,5-dimethyl-1-cyclohexen-1-yl]methyl]-1-piperazinyl]-N-[[4-[[(1R)-3-(4-morpholinyl)-1-[(phenylthio)methyl]propyl]amino]-3-[(trifluoromethyl)sulfonyl]phenyl]sulfonyl]-benzamide]
[1]
  cell death: 80%
[2]
  cell death: 20-35%
[3]
  tumor growth: almost no effect
Mel270 cells; ABT-263 3 μM
  cell death: do not induce cell death
Mel270 cells; ABT-263 3 μM 48 hr
  PARP cleavage and alive cell percentage, used alone: relative low effect
Mel270 cells; ABT-263 5 μM + GSK2606414 5 μM, 48 h
  ABT-263 effect on viable cells combined with GSK2606414: improved
Mel270 cells; siPERK 48 hrs then ABT-263 3 μM 48 hr
  ABT-263 effects and killing efficacy combined with PERK siRNA: significantly improved
XBP1 splicing
  XBP1 splicing: significantly higher
92.1 cells
  ABT-263-induced apoptosis with PERK knockdown: sensitized
[4]
  side effects: thrombocytopenia
[5]; metastatic cell lines
  PERK and IRE1α phosphorylation: did not detect
[5]; metastatic cells
  induction of ATF4 and CHOP: hardly detectable
[6]
  ATF4 and CHOP level: enhanced
Primary melanoma cells
  proliferation, response of primary melanoma cells: highly resistant
OMM1 cells
  proliferation: strongly reduced proliferation
[7]
  proliferation: strongly reduced proliferation
